Source: ChEMBL document CHEMBL1201862, “PubChem BioAssay data set” (2004)
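Step 1: Grow cells in 96-well plates. Step 2: Expose to compound for 48 hours at 5 concentrations. Step 3: Interpolate endpoints linearly; if unreached, use highest concentration. Here, GI50 denotes the concentration required for 50% inhibition of growth.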 The source made the active and inactive calls. Cut-off read from the data, not from the text of the source: active = GI50 up to about 1.1 µM and inactive = higher.

Assays:
Assay in all cases: DTP human tumour cell line panel, 48 h
[1] = test system: UO-31
[2] = test system: LOX IMVI
[3] = test system: HL-60
[4] = test system: Malme-3M
[5] = test system: K562
[6] = test system: SF-268
[7] = test system: A498
[8] = test system: HOP-92
[9] = test system: SR
[10] = test system: NCI-H226
[11] = test system: SF-295
[12] = test system: UACC-62
[13] = test system: RPMI-8226
[14] = test system: COLO 205
[15] = test system: HT-29
[16] = test system: HCT-116
[17] = test system: MDA-N
[18] = test system: NCI-H23
[19] = test system: CCRF-CEM
[20] = test system: MOLT-4
[21] = test system: NCI/ADR-RES
[22] = test system: SK-MEL-5
[23] = test system: ACHN
[24] = test system: UACC-257
[25] = test system: SN12C
[26] = test system: SNB-19
[27] = test system: SK-MEL-2
[28] = test system: TK-10
[29] = test system: OVCAR-5
[30] = test system: EKVX
[31] = test system: SW-620
[32] = test system: RXF 393
[33] = test system: U-251
[34] = test system: Hs-578T
[35] = test system: A549
[36] = test system: HCC 2998
[37] = test system: HCT-15
[38] = test system: NCI-H460
[39] = test system: DU-145
[40] = test system: KM12
[41] = test system: 786-0
[42] = test system: OVCAR-8
[43] = test system: SNB-75
[44] = test system: PC-3
[45] = test system: OVCAR-4
[46] = test system: NCI-H522
[47] = test system: MDA-MB-435
[48] = test system: CAKI-1
[49] = test system: IGROV-1
[50] = test system: SK-OV-3
[51] = test system: SK-MEL-28
[52] = test system: MDA-MB-231
[53] = test system: SF-539
[54] = test system: HOP-62
[55] = test system: T47D
[56] = test system: OVCAR-3
[57] = test system: MCF7
[58] = test system: M14

Measured: GI50

CCOC(=O)CCN1C(=O)C(=O)N(c2ccc(OC)cc2)C1=S
inactive: [1] 56.5 µM | [2] > 100 µM | [3] > 100 µM | [4] > 100 µM | [5] 54.6 µM | [6] > 100 µM | [7] > 100 µM | [8] > 100 µM | [9] > 100 µM | [10] 25.6 µM | [11] > 100 µM | [12] 16 µM | [13] > 100 µM | [14] > 100 µM | [15] > 100 µM | [16] > 100 µM | [17] 97.5 µM | [18] > 100 µM | [19] > 100 µM | [20] > 100 µM | [21] > 100 µM | [22] > 100 µM | [23] > 100 µM | [24] > 100 µM | [25] > 100 µM | [26] > 100 µM | [27] > 100 µM | [28] > 100 µM | [29] > 100 µM | [30] > 100 µM | [31] > 100 µM | [32] > 100 µM | [33] > 100 µM | [34] 47.1 µM | [35] > 100 µM | [36] 69.2 µM | [38] 53.5 µM | [39] > 100 µM | [40] 39.1 µM | [41] > 100 µM | [42] > 100 µM | [43] > 100 µM | [44] > 100 µM | [45] 63 µM | [46] 14.8 µM | [47] > 100 µM | [48] > 100 µM | [49] > 100 µM | [50] > 100 µM | [51] > 100 µM | [52] > 100 µM | [53] 97.7 µM | [54] > 100 µM | [55] > 100 µM
> 100 µM: [37]

Cc1ccc(S(=O)(=O)NCCCSCCO)cc1
> 100 µM: [37]
inactive: [1] > 100 µM | [2] 29 µM | [3] 26.1 µM | [5] 38.4 µM | [6] 10 µM | [7] > 100 µM | [8] 36.4 µM | [9] > 100 µM | [10] 27.9 µM | [56] 31.6 µM | [11] > 100 µM | [14] 18.3 µM | [15] 33.6 µM | [16] 27.2 µM | [17] 55 µM | [18] 25.6 µM | [19] 33.3 µM | [20] 56.5 µM | [21] > 100 µM | [22] 13.9 µM | [23] > 100 µM | [24] 44.1 µM | [25] 43 µM | [26] 9.04 µM | [28] 90.8 µM | [31] 89.7 µM | [32] > 100 µM | [33] 8.26 µM | [34] 30.5 µM | [35] 10.5 µM | [57] 32.8 µM | [36] > 100 µM | [38] 43.9 µM | [39] > 100 µM | [40] 20.6 µM | [58] 28.6 µM | [42] 57.8 µM | [43] 33.1 µM | [44] 30 µM | [45] 96.8 µM | [46] > 100 µM | [47] 45.2 µM | [50] > 100 µM | [51] > 100 µM | [52] 27.7 µM | [55] 21.7 µM
